Data as given in patent publication EP0352000A2, “Retroviral protease binding peptides” (SMITHKLINE BECKMAN CORPORATION, priority 1988, dated 1990).
Where a SMILES comes first, the peptide text is derived from it. [ ]: non-standard residue; d: D form. The star is where a group is joined. Sta = CC(C)C[C@H](N)[C@@H](O)CC(=O)O; Isovaleryl = CC(C)CC(=O)*

Legend:
[1] = biological target: retroviral proteases associated with human T-cell leukemia virus (Human T-cell leukemia virus 1, UniProt P10274); conditions: cited from earlier work
[2] = biological target: retroviral proteases associated with Moloney murine leukemia virus (Moloney murine leukemia virus, UniProt P03355); conditions: cited from earlier work
[3] = system: retroviral proteases associated with bovine leukemia virus; conditions: cited from earlier work
[4] = system: HIV protease; conditions: substrate of HIV protease; MENDT buffer pH 6.0, 37°C
Description: The enzyme used to assay the peptide of this invention was produced in this manner and purified from the cell pellet as follows. The E. coli cell pellet was resuspended in a buffer consisting of 50 mM Tris-­HCl, pH 7.5; 1.0 mM each DTT, EDTA and PMSF (phenylmethylsulfonyl fluoride). The cells were lysed by sonication and insoluble material was removed by centrifugation at 15,000 x g av, for 15 min. The clarified supernatant was then brought to 40% of saturation with ammonium sulfate This suspension was stirred at room temperature for 30 min. and then centrifuged as above. […] The effluent of the column was monitored at 280 nm and 1 min. fractions collected.
Initial rate data for oligopeptides were determined at pH 6.0, 37°C. […] Samples were centrifuged at 17,000 rpm for 5 min., and the peptide substrates and products were separated and quantified (by peak integration) by reverse phase HPLC. Initial rates were determined as (mM peptide product formed)/min based on the percentage of conversion of substrate to product for a given concentration of substrate. […] Kinetic constants (Michaelis constants, maximal velocities) were determined by fitting initial rate data to the Michaelis-Menten equation (v = Vmax(S)/(Km + (S))) using the Fortran program of Cleland (W. W. Cleland, Adv. Enzymol. 29, 1, (1967)). […]

Chain of retroviral proteases associated with human T-cell leukemia virus (P10274 450-574): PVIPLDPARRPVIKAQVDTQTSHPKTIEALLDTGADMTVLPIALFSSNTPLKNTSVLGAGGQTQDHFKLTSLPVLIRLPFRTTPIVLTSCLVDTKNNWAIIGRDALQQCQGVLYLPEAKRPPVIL
Chain of retroviral proteases associated with Moloney murine leukemia virus (P03355 535-659): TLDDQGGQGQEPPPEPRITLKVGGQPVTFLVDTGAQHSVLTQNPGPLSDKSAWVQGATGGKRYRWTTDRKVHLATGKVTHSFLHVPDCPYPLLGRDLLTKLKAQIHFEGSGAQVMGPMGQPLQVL

Row | Compound | inhibitor of the retroviral protease [1] | inhibitor of the retroviral protease [2] | inhibitor of the retroviral protease [3] | Km [4] [mM]
1 | CC(C)CC(=O)N[C@H](C(=O)N[C@H](C(=O)N[C@@H](CC(C)C)[C@@H](O)CC(=O)N[C@@H](C)C(=O)N[C@@H](CC(C)C)[C@@H](O)CC(=O)O)C(C)C)C(C)C [pepstatin] (Isovaleryl-VV[Sta]A[Sta]-OH) | weak inhibitor | weak inhibitor | weak inhibitor | –
2 | N-acetyl-L-arginyl-L-alanyl-L-seryl-L-glutaminyl-L-asparaginyl-L-tyrosyl-L-prolyl-L-valyl-L-valinamide | – | – | – | 7
